Blank lines part the entries; values can stand above or below the compound they belong to. Active and inactive are the calls of the source.
Experiments:
[1] = biological target: COUP transcription factor 2 (Homo sapiens, UniProt P24468); experiment: Luminescence-based cell-based high throughput dose response assay to identify inhibitors of COUP-TFII (NR2F2).; assay type: functional;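 also: HEK293 cells transiently cotransfected with COUP-TFII expression vector and reporter; luciferase reporter luminescence driven by COUP-TFII from the pX2-168 reporter plasmid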
[2] = T. cruzi growth inhibition in host cells, dose response, cell-based, plate reader, dry powder, set 2 (AID 652275); assay type: functional
[3] = anti-trypanosomal activity in BESM host cells – imaging, CA-I/72 strain, bovine embryo skeletal muscle, dry powder, dose response (AID 651885); assay type: functional, cell-based
[4] = intracellular Trypanosoma cruzi inhibitors in host cells – cell-based, plate reader, cherry-pick samples, set 3, dose response (AID 651818); assay type: functional;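 also: compounds incubated with infected cells for about four days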
[5] = biological target: Broad substrate specificity ATP-binding cassette transporter ABCG2 (Homo sapiens, UniProt Q9UNQ0); experiment: blockers of JC-1 export by ABCG2 – Ig-MXP3 cells, flow cytometry, dose response (AID 1690); assay type: functional
NS3 = NS3 (Hepatitis C virus, UniProt A3EZJ3); experiment: NS3h DNA-binding inhibition IC50 – biochemical, fluorescence polarization, ChemBridge library, dose response (AID 743264)
Mu-type opioid receptor = Mu-type opioid receptor (Homo sapiens, UniProt P35372); assay type: functional, cell-based;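 also: U2OS cells with beta-arrestin recruitment to OPRM1 by beta-gal complementation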
[6] = biological target: 5-hydroxytryptamine receptor 2A (Mus musculus, UniProt P35363); assay type: functional, cell-based;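 also: CHO-K1 cells with tagged receptor and beta-arrestin; agonist potency measured as compound-induced activation of the receptor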
[7] = Counterscreen for inhibitors of Trypanosoma brucei methionyl tRNA synthetase (MetRS): Luminescence-based cell-based high throughput dose response assay to identify compounds that are cytotoxic to Jurkat human T lymphocyte cells.; assay type: functional
[8] = Late stage counterscreen for inhibitors of Trypanosoma brucei methionyl tRNA synthetase (MetRS): Luminescence-based cell-based high throughput dose response assay to identify compounds that are cytotoxic to Jurkat human T lymphocyte cells.; assay type: functional
[9] = biological target: T1, Methionyl-tRNA synthetase, putative (Trypanosoma brucei brucei, UniProt Q38C91); assay type: functional, Trypanosoma brucei brucei strain 927/4 GUTat10.1
[10] = biological target: T1, Methionyl-tRNA synthetase, putative; assay type: functional, Trypanosoma brucei brucei strain 927/4 GUTat10.1; remark: listed apart in the source
[11] = HEK293 Cytotoxicity Assay Measured in Cell-Based System Using Plate Reader - 7071-01_Inhibitor_Dose_CherryPick_Activity_Set2.; assay type: functional
HEK293 = experiment: viability loss in HEK293T cells – cell-based, ATP luminescence, cherry-pick samples, cytotoxicity control, dose response (AID 687005); assay type: functional; details: Homo sapiens;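 also: cells exposed to compound for 48 hours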
[12] = biological target: 1-phosphatidylinositol 4,5-bisphosphate phosphodiesterase beta-3 (Homo sapiens, UniProt Q01970); experiment: Fluorescence-based biochemical high throughput dose response assay to identify inhibitors of phospholipase C isozymes (PLC-B3).
[13] = biological target: 1-phosphatidylinositol 4,5-bisphosphate phosphodiesterase gamma-1 (Homo sapiens, UniProt P19174); experiment: Counterscreen for inhibitors of phospholipase C isozymes (PLC-B3): Fluorescence-based biochemical high throughput dose response assay to identify inhibitors of phospholipase C isozymes (PLC-gamma1).
[14] = biological target: Matrix metalloproteinase-14 (Homo sapiens, UniProt P50281); experiment: Dose Response confirmation of uHTS hits for a small molecule inhibitors of MT1-MMP activation in a fluorescence assay set 1.; assay type: functional
[15] = biological target: T2, Microphthalmia-associated transcription factor (Homo sapiens, UniProt O75030); experiment: reducers of TRPM1 reporter luminescence, concentration series – cell-based, SK-MEL-5, cherry-picked, set 3, MITF inhibitor project, dose response (AID 493073); assay type: functional;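 also: SK-MEL-5 melanoma cells with luciferase driven by the MITF target TRPM1 promoter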
T2 sequence (O75030 whole entry): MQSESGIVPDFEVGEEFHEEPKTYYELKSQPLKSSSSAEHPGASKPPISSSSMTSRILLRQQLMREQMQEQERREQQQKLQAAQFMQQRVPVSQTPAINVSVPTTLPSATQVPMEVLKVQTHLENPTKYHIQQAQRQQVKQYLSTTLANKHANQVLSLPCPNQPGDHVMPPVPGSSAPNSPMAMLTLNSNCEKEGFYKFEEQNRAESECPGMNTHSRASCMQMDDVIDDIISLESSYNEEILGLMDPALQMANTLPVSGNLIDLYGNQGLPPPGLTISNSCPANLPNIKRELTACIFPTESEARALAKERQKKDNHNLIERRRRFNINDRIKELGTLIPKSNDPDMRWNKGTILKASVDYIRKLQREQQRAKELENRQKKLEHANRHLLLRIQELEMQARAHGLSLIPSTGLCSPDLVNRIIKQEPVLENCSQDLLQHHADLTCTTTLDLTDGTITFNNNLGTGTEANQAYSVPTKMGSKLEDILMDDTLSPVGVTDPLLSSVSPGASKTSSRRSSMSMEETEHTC

Cytochrome P450 3A4 = Cytochrome P450 3A4 (Homo sapiens, UniProt P08684);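 also: CYP3A4 tested as one member of a cytochrome P450 panel screen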
[16] = CTGF mRNA reduction in DLD1 cells – cell-based, DLD1 colon cancer, RT-qPCR, cherry-pick, dose response (AID 1053122); assay type: functional; details: Cancer cell lines
Protein Wnt-3a = Protein Wnt-3a (Mus musculus, UniProt P27467); experiment: SAR analysis of small molecule antagonists of Gli-SUFU in a Wnt3a luminescent reporter assay.; assay type: functional
[17] = biological target: 26S proteasome non-ATPase regulatory subunit 14 (Homo sapiens, UniProt O00487); experiment: inhibition of proteasome subunit RPN11 – biochemical, fluorescence polarization, uHTS hits, confirmation (AID 602368); assay type: functional
[18] = biological target: 72 kDa type IV collagenase (Homo sapiens, UniProt P08253); experiment: Dose Response validation of uHTS RPN11 inhibitor hits using a MMP-2 Fluorescence assay.; assay type: functional
Prothrombin = Prothrombin (Bos taurus, UniProt P00735); experiment: thrombin protease inhibitors – biochemical, fluorescence polarization, uHTS hits, dose response (AID 602369); assay type: functional
Albumin = Albumin (Bos taurus, UniProt P02769); experiment: Counterscreen for inhibitors of T-cell receptor (TCR)-CD3 interaction: Fluorescence-based biochemical high throughput dose response assay to identify inhibitors of T-cell receptor (TCR)-CD3 interaction using a TAMRA-labeled BSA probe.; assay type: functional
[19] = HEK-293T cell viability reduction – luminescence, B-cell screen hits, cytotoxicity control for BCR NF-kB inhibitor project, dose response (AID 489021); assay type: functional, cell-based;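 also: HEK-293T cells carrying an NF-kB luciferase reporter; cells exposed to compound for about 14 hours before viability readout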

T1 sequence (Q38C91 whole entry): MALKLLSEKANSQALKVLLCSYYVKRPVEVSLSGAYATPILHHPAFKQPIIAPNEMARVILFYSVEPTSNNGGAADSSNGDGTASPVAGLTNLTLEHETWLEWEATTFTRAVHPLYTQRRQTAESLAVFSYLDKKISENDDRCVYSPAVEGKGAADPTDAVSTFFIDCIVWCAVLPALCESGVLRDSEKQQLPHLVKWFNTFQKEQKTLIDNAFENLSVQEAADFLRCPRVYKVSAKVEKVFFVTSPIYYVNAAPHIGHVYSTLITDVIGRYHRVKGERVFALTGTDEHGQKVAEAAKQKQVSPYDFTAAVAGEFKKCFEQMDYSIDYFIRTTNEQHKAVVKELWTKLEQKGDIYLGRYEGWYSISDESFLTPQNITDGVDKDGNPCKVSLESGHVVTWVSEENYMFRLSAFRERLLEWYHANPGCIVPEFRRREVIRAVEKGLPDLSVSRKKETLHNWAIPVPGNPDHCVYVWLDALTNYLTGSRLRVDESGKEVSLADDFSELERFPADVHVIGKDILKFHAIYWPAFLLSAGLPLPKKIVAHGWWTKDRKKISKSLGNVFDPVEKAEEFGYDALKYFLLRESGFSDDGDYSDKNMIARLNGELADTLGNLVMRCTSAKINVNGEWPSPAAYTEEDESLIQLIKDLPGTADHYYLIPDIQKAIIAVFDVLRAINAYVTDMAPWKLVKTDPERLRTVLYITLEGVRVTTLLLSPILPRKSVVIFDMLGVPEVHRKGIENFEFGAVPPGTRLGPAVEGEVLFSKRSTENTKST
Sequence of 72 kDa type IV collagenase (P08253 whole entry): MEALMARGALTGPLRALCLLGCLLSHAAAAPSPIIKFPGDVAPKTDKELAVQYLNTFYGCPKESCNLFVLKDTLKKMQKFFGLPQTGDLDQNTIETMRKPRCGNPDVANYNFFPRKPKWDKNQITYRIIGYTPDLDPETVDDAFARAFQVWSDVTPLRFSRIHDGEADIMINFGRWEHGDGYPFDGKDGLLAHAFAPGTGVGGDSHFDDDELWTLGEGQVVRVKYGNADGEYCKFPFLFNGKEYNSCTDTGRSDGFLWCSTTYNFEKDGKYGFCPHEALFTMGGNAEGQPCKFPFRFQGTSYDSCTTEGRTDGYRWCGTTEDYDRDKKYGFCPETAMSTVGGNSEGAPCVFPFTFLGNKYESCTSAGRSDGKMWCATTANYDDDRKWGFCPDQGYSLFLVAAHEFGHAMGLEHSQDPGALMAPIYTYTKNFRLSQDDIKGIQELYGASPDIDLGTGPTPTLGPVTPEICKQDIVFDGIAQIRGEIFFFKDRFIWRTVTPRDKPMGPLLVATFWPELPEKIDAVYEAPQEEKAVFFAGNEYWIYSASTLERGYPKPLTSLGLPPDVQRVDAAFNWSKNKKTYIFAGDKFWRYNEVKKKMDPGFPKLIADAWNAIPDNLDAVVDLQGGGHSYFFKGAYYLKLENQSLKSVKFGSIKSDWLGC
Sequence of Protein Wnt-3a (P27467 whole entry): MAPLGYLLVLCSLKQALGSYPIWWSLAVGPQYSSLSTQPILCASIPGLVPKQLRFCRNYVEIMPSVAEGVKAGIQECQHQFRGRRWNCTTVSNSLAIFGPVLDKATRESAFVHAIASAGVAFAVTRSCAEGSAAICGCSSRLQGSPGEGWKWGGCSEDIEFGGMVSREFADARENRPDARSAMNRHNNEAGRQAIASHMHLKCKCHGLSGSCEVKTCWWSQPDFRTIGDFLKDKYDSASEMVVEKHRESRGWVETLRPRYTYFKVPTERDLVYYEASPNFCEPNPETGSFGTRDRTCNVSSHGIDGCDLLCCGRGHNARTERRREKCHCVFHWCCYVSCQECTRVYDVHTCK
Sequence of Albumin (P02769 whole entry): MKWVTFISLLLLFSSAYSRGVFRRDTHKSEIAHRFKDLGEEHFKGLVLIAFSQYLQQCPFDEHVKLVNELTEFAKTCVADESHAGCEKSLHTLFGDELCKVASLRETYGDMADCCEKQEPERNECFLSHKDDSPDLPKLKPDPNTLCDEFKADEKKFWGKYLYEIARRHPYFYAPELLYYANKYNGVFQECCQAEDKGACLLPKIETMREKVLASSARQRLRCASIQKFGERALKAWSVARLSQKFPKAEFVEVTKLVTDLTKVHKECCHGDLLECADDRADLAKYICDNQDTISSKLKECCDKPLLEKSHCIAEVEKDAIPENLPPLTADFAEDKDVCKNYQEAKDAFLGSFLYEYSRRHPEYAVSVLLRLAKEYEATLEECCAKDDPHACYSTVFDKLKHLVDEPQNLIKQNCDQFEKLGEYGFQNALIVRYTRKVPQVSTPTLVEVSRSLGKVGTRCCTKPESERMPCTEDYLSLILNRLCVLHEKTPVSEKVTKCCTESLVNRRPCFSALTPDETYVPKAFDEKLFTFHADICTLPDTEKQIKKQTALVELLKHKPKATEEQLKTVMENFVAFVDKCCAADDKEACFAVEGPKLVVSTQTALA
Sequence of Cytochrome P450 3A4 (P08684 whole entry): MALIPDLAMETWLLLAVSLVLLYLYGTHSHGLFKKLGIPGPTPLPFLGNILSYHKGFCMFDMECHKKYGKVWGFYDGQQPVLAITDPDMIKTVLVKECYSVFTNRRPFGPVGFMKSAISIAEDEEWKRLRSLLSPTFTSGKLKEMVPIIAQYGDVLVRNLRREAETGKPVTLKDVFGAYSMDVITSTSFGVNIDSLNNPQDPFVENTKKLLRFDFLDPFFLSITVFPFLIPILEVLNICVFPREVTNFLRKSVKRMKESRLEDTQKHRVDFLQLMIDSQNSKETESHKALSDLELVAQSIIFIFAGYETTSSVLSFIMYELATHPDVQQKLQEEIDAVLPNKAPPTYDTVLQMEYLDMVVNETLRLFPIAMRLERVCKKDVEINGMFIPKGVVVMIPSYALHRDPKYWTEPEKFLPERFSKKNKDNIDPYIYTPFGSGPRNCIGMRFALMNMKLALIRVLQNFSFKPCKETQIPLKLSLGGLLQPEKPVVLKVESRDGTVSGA
Sequence of 1-phosphatidylinositol 4,5-bisphosphate phosphodiesterase beta-3 (Q01970 whole entry): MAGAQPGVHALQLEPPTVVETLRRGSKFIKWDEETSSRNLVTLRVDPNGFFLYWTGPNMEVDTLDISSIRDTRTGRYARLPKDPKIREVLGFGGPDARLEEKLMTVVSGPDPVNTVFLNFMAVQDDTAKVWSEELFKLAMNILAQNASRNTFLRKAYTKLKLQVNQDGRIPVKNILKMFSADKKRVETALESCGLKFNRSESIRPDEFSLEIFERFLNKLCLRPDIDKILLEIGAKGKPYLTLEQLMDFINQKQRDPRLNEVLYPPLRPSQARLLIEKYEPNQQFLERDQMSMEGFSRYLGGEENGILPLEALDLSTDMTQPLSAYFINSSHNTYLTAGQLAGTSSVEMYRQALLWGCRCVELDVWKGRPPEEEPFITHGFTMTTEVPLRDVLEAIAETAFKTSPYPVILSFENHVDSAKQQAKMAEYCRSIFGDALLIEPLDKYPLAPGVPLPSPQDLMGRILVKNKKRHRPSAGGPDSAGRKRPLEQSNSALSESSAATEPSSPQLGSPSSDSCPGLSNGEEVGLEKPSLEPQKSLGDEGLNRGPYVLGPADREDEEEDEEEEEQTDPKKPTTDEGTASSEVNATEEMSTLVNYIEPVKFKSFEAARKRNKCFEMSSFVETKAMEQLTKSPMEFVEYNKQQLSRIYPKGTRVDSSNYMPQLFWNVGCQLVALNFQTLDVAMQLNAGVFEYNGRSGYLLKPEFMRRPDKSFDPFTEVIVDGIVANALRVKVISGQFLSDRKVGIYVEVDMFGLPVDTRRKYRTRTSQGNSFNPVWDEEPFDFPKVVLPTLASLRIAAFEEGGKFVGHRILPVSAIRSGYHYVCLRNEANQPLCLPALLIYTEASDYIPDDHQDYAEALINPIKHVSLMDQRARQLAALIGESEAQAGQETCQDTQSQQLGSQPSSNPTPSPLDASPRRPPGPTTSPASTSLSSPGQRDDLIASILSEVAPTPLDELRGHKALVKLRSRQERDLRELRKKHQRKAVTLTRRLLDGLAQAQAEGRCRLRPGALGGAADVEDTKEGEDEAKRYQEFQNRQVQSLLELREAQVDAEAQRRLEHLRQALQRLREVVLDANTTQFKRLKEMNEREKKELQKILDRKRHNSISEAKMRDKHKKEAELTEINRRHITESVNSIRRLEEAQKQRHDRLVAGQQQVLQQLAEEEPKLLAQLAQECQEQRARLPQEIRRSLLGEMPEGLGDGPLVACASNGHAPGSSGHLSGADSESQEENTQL
Sequence of Broad substrate specificity ATP-binding cassette transporter ABCG2 (Q9UNQ0 whole entry): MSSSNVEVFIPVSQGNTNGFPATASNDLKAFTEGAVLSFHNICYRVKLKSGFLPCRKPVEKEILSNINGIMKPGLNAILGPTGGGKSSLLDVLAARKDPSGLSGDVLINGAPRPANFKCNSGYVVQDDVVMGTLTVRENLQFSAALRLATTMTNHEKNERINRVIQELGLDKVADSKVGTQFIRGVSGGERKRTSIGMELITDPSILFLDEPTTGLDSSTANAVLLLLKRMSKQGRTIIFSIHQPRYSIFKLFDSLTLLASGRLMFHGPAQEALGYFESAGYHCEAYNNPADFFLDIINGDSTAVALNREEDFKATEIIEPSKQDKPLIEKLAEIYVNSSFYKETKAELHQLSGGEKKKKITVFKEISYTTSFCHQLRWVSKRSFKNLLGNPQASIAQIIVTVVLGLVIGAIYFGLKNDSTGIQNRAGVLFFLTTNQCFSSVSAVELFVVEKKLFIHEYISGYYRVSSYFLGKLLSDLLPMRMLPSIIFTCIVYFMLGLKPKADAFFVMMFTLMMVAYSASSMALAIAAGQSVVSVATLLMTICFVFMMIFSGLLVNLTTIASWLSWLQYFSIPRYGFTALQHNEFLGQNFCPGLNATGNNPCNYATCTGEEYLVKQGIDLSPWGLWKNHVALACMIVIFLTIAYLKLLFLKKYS

IC50 [1]: 6.35 µM (active)
Compound: c1ccc2cc3[nH]c(CNc4nc(N5CCOCC5)nc5c4ncn5-c4ccsc4)nc3cc2c1

Compound: COc1ccc(CN(C)C[C@@H]2Oc3c(NC(=O)c4ccncc4)cccc3C(=O)N([C@@H](C)CO)C[C@H]2C)cc1
AC50 [2]: 0.0382 µM (active) | IC50 [3]: 0.18 µM (active) | AC50 [4]: 0.388 µM (active)

EC50 [5]: 4.6 µM (active)
Compound: COC(=O)c1ccc(C(C(=O)NC2CCCCC2)N(Cc2ccccc2)C(=O)Cc2cccs2)cc1 (stereo unspecified)

IC50 (NS3): 50.4 µM (active)
Compound: Cc1ccc(C)n1-c1cc(C(=O)O)ccc1O

EC50 (Mu-type opioid receptor): 92.5 µM (inactive) | EC50 [6]: 41.2 µM (inactive)
Compound: CCOC(=O)N1CCC(N2CCCC(C(=O)c3ccccc3OC)C2)CC1 (stereo unspecified)

Compound: CC(=O)c1c[nH]c(C(=O)NCc2cccc(C(F)(F)F)c2)c1
IC50 [7]: 83.3 µM (inactive) | IC50 [8]: > 83.3 µM (inactive) | IC50 [9]: 2.07 µM (active) | IC50 [10]: 1.16 µM (active)

Compound: COc1ccccc1C#Cc1ccc2c(c1)O[C@@H](CN(C)C(C)=O)[C@@H](C)CN([C@H](C)CO)S2(=O)=O
AC50 [11]: 9.59 µM (active) | AC50 (HEK293): 9.59 µM (active)

IC50 [12]: > 123 µM (inactive) | IC50 [13]: > 123 µM (inactive)
Compound: CCOC(=O)/C(C#N)=C1/C=CN(C)C=N1

Compound: CC[n+]1c(/C=C/N(C)c2ccccc2)sc2ccc(Cl)cc21
IC50 [14]: > 80 µM (inactive) | AC50 [15]: 9.07 µM (active) | AC50 (Cytochrome P450 3A4): 17.8 µM (inconclusive)

Compound: O=C(Cc1ccncc1)N1CCCCN2[C@@H](CO)[C@H](c3ccc(C#Cc4ccccc4F)cc3)[C@@H]2C1
AC50 [16]: 13.1 µM (active)

IC50 (Protein Wnt-3a): > 21.8 µM (inactive)
Compound: O=C(Nc1cc(N2CCCCC2)ncn1)c1ccc(Br)o1

Compound: Cc1ccc(/C=C2\SC(=S)N(CCCC(=O)NNC(=O)c3ccccc3O)C2=O)cc1
IC50 [17]: 28.3 µM (active) | IC50 [18]: > 100 µM (inactive) | IC50 (Prothrombin): 32.8 µM (active) | IC50 (Albumin): > 94.1 µM (inactive) | IC50 [19]: > 80 µM (inactive)
